The subject of assay [1] is MDA-MB-231. Description: Anti-tumor effect in MDA-MB-231 subcutaneous xenograft model. The assay is classed as in vivo, human. Conditions: MDA-MB-231 xenograft in nude mice; methanesulfonate 100 mg/kg twice a day, one week, oral; day 8 vs day 1. How it is done: (§1) Human tumor cell lines MDA-MB-231, MDA-MB-468, DU145, AsPC-1 (these four lines were purchased from ATCC), A549 (purchased from Dainippon Pharmaceutical Co., Ltd.), Lovo, SK-OV-3, H526, PC-3, DLD-1, HCT116 (these six lines were purchased from ATCC), SEKI, HMV-1 (these two lines were purchased from JCRB cell bank, National Institute of Biomedical Innovation), LOX (purchased from AntiCancer) and A375 (purchased from Dainippon Pharmaceutical Co., Ltd.) were cultured with RPMI1640 (containing 10% FBS) in a 5% CO2 gas incubator until they reached about 80% confluence. After culturing, cells from each line were recovered with trypsin-EDTA by conventional procedures. The cells were suspended in phosphate buffer to prepare a cell suspension of 1×10^8 cells/ml or 5×10^7 cells/ml. […] The major axis and minor axis of tumor were measured with a Digimatic Caliper (Mitsutoyo). Then, tumor volume, relative tumor volume and ΔT/C were calculated using the following formulas: Tumor volume (TV)=tumor major axis (mm)×tumor minor axis^2 (mm^2)/2 Relative tumor volume (RTV)=tumor volume on the measurement day/tumor volume on the starting day of administration ΔT/C=(tumor volume at day 8 of administration groups−tumor volume at day 1 of administration groups)/(tumor volume at day 8 of control group−tumor volume at day 1 of control group)×100 […]

For assay [2], the system named is MDA-MB-468. Description: Anti-tumor effect in MDA-MB-468 subcutaneous xenograft model. Conditions: MDA-MB-468 xenograft in nude mice; methanesulfonate 100 mg/kg twice a day, one week, oral; day 8 vs day 1. In kind it is in vivo, human. How it is done: as §1
For orientation: A xenograft is tissue or cells of one species grown in another, often human tumour cells in immunodeficient mice.

For assay [3], the system named is DU145. Description: Anti-tumor effect in DU145 subcutaneous xenograft model. In kind it is in vivo, human. Conditions: DU145 xenograft in nude mice; methanesulfonate 100 mg/kg twice a day, one week, oral; day 8 vs day 1. How it is done: as §1
Assay [4] deals with H526. Description: Anti-tumor effect in H526 subcutaneous xenograft model. In kind it is in vivo, human. Conditions: H526 xenograft in nude mice; methanesulfonate 100 mg/kg twice a day, one week, oral; day 8 vs day 1. The protocol:
as §1

Assay [5] relates to PC-3. Description: Anti-tumor effect in PC-3 subcutaneous xenograft model. In kind it is in vivo, human. Conditions: PC-3 xenograft in nude mice; methanesulfonate 100 mg/kg twice a day, one week, oral; day 8 vs day 1. How it is done:
as §1

In assay [6] the test system is DLD-1. Description: Anti-tumor effect in DLD-1 subcutaneous xenograft model. The assay is classed as in vivo, human. Conditions: DLD-1 xenograft in nude mice; methanesulfonate 100 mg/kg twice a day, one week, oral; day 8 vs day 1. How it is done: as §1
The test system of assay [7] is HCT116. Description: Anti-tumor effect in HCT116 subcutaneous xenograft model. In kind it is in vivo, human. Conditions: HCT116 xenograft in nude mice; methanesulfonate 100 mg/kg twice a day, one week, oral; day 8 vs day 1. The protocol:
as §1

The subject of assay [8] is SEKI. Description: Anti-tumor effect in SEKI subcutaneous xenograft model. The assay is classed as in vivo, human. Conditions: SEKI xenograft in nude mice; methanesulfonate 100 mg/kg twice a day, one week, oral; day 8 vs day 1. How it is done: as §1
Assay [9] concerns HMV-1. Description: Anti-tumor effect in HMV-1 subcutaneous xenograft model. The assay is classed as in vivo, human. Conditions: HMV-1 xenograft in nude mice; methanesulfonate 100 mg/kg twice a day, one week, oral; day 8 vs day 1. The protocol:
as §1

Assay [10] relates to LOX. Description: Anti-tumor effect in LOX subcutaneous xenograft model. The assay is classed as in vivo, human. Conditions: LOX xenograft in nude mice; methanesulfonate 100 mg/kg twice a day, one week, oral; day 8 vs day 1. How it is done: as §1
Assay [11] deals with A375. Description: Anti-tumor effect in A375 subcutaneous xenograft model. The assay is classed as in vivo, human. Conditions: A375 xenograft in nude mice; methanesulfonate 100 mg/kg twice a day, one week, oral; day 8 vs day 1. The protocol: as §1
The test system of assay [12] is human non-small cell lung cancer cell line (A549). Description: Combined application of VEGF receptor kinase inhibitor and EGF inhibitor in A549 subcutaneous xenograft model. In kind it is in vivo. Conditions: nude mice, 4 weeks, control 9.94 ± 0.77. The protocol:
Combined Application of VEGF Receptor Kinase Inhibitor and EGF Inhibitor in Human Non-Small Cell Lung Cancer Cell line (A549) Subcutaneous Xenograft Model (In Vivo) […] Then, cells were recovered with trypsin-EDTA. A cell suspension (5×10^7 cells/ml) was prepared with phosphate buffer containing 50% matrigel. The resultant cell suspension was subcutaneously transplanted into the flank of nude (0.1 ml/mouse). From day 10 of transplantation, 4-(3-chloro-4-(cyclopropylaminocarbonyl)aminophenoxy)-7-methoxy-6-quinolinecarboxamide (a methanesulfonate) and erlotinib were orally administered independently or in combination. With respect to 4-(3-chloro-4-(cyclopropylaminocarbonyl)aminophenoxy)-7-methoxy-6-quinolinecarboxamide (a methanesulfonate), it was administered at 3 mg/kg, 10 mg/kg or 30 mg/kg; once a day; for 4 weeks. With respect to erlotinib, it was administered at 50 mg/kg, once a day, for 4 weeks. The major axis and minor axis of tumor were measured with a Digimatic Caliper (Mitsutoyo). Then, tumor volume and relative tumor volume were calculated using the following formulas: […]

The test system of assay [13] is human non-small cell lung cancer cell strain (PC-9). Description: Combined application of VEGF receptor kinase inhibitor and EGF inhibitor in PC-9 subcutaneous xenograft model. In kind it is in vivo. Conditions: PC-9 xenograft, nude mice, 4 weeks, control 7.51 ± 1.69. The protocol: Combined Application of VEGF Receptor Kinase Inhibitor and EGF Inhibitor in Human Non-Small Cell Lung Cancer Cell Strain (PC-9) Subcutaneous Xenograft Model (In Vivo) […] Then, cells were recovered with trypsin-EDTA. A cell suspension (5×10^7 cells/nil) was prepared with phosphate buffer. The resultant cell suspension was subcutaneously transplanted into the flank of nude mice (0.1 ml/mouse). […] The major axis and minor axis of tumor were measured with a Digimatic Caliper (Mitsutoyo). Then, tumor volume and relative tumor volume were calculated using the following formulas: […]

Where [14] appears, read: Compound A 10 mg/kg oral once a day.
Where [15] appears, read: Erlotinib 50 mg/kg oral once a day.

For the molecule `COc1cc2nccc(Oc3ccc(NC(=O)NC4CC4)c(Cl)c3)c2cc1C(N)=O` [Compound A, 4-(3-chloro-4-(cyclopropylaminocarbonyl)aminophenoxy)-7-methoxy-6-quinolinecarboxamide], the ΔT/C is given as less than −30% in assay [1]; less than −30% in assay [2]; less than −30% in assay [3]; more than 10% in assay [4]; more than 10% in assay [5]; more than 10% in assay [6]. Also, the ΔT/C in [7], in assay [8], in assay [9], in assay [10] and in assay [11] was more than 10% in each case. Besides, the “Relative Tumor Volume at Day 29 Mean ± Standard Deviation” value in assay [12] (Compound A 3 mg/kg oral once a day) came to 4.34 ± 0.80; in assay [12] (setting [14]) it was 2.65 ± 0.45; in assay [12] (Compound A 30 mg/kg oral once a day) it was 1.65 ± 0.31; in [13] (setting [14]), 2.24 ± 0.54.

For the molecule `C#Cc1cccc(Nc2ncnc3cc(OCCOC)c(OCCOC)cc23)c1` [Erlotinib, 4-(3-ethynylphenylamino)-6,7-bis(2-methoxyethoxy)-quinazoline, reference compound], the “Relative Tumor Volume at Day 29 Mean ± Standard Deviation” value in assay [12] (setting [15]) came to 5.71 ± 1.84; in [13] (setting [15]) it was 3.30 ± 0.19.

Source of the values: US9006240B2, “Method for assay on the effect of vascularization inhibitor” (Eisai R&D Management Co., Ltd., priority 2005, dated 2015).
